In ChEMBL document CHEMBL4028801, “A multifactorial approach to hepatobiliary transporter assessment enables improved therapeutic compound development” (Toxicol Sci, 2013):
Counter-ions that a name gives are not always drawn. Positions of bridges follow the written chain, without caps; N, C: chain ends. Non-standard residues stand in square brackets, D forms with d. Residues, ends and D or L forms follow the SMILES beside them. hArg = N=C(N)NCCCC[C@H](N)C(=O)O; Mpa = O=C(O)CCS

Legend:
Bile salt export pump = Bile salt export pump (Homo sapiens, UniProt O95342); test: Inhibition of human BSEP overexpressed in Sf9 cell membrane vesicles assessed as uptake of [3H]-taurocholate in presence of ATP measured after 15 to 20 mins by membrane vesicle transport assay; type: ADME, cell-based
Chain of Bile salt export pump (O95342 whole entry): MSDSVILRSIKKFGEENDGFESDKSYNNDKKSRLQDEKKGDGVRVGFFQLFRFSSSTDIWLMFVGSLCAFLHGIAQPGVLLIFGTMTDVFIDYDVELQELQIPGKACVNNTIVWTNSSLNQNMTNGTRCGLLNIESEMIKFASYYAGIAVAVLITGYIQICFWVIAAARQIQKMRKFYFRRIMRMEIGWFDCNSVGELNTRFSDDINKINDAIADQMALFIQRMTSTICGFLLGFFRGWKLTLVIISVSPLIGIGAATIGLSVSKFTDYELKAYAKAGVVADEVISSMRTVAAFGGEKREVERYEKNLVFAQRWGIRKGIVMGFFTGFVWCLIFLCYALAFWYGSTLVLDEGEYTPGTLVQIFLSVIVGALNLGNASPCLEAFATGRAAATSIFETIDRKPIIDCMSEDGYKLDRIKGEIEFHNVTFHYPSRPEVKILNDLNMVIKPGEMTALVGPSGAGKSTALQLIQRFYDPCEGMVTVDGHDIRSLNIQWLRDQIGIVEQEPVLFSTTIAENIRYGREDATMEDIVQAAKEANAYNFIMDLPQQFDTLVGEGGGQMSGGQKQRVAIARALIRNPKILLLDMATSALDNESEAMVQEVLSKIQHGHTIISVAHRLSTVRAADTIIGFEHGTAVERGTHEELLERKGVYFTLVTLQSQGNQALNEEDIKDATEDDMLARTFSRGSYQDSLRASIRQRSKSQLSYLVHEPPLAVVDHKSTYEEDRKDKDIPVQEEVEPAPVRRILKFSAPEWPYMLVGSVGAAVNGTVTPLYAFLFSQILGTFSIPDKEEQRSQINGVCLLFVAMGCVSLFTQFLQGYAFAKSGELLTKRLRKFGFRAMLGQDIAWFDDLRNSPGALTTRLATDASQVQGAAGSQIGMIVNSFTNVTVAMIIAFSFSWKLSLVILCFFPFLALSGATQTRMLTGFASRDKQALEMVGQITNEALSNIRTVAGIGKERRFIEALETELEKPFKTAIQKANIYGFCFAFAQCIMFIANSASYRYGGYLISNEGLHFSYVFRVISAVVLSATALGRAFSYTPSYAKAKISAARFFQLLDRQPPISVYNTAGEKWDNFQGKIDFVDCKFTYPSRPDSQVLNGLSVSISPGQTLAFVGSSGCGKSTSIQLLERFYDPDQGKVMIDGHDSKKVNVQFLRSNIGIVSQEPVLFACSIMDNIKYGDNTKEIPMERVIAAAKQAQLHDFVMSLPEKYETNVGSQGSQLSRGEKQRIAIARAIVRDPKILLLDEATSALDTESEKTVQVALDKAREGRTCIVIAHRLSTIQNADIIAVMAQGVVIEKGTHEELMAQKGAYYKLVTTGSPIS

[1] = biological target: ATP-binding cassette sub-family C member 2 (Homo sapiens, UniProt Q92887); test: Inhibition of human MRP2 overexpressed in Sf9 cell membrane vesicles assessed as uptake of [3H]-estradiol-17beta-D-glucuronide in presence of ATP and GSH measured after 20 mins by membrane vesicle transport assay
Chain of ATP-binding cassette sub-family C member 2 (Q92887 whole entry): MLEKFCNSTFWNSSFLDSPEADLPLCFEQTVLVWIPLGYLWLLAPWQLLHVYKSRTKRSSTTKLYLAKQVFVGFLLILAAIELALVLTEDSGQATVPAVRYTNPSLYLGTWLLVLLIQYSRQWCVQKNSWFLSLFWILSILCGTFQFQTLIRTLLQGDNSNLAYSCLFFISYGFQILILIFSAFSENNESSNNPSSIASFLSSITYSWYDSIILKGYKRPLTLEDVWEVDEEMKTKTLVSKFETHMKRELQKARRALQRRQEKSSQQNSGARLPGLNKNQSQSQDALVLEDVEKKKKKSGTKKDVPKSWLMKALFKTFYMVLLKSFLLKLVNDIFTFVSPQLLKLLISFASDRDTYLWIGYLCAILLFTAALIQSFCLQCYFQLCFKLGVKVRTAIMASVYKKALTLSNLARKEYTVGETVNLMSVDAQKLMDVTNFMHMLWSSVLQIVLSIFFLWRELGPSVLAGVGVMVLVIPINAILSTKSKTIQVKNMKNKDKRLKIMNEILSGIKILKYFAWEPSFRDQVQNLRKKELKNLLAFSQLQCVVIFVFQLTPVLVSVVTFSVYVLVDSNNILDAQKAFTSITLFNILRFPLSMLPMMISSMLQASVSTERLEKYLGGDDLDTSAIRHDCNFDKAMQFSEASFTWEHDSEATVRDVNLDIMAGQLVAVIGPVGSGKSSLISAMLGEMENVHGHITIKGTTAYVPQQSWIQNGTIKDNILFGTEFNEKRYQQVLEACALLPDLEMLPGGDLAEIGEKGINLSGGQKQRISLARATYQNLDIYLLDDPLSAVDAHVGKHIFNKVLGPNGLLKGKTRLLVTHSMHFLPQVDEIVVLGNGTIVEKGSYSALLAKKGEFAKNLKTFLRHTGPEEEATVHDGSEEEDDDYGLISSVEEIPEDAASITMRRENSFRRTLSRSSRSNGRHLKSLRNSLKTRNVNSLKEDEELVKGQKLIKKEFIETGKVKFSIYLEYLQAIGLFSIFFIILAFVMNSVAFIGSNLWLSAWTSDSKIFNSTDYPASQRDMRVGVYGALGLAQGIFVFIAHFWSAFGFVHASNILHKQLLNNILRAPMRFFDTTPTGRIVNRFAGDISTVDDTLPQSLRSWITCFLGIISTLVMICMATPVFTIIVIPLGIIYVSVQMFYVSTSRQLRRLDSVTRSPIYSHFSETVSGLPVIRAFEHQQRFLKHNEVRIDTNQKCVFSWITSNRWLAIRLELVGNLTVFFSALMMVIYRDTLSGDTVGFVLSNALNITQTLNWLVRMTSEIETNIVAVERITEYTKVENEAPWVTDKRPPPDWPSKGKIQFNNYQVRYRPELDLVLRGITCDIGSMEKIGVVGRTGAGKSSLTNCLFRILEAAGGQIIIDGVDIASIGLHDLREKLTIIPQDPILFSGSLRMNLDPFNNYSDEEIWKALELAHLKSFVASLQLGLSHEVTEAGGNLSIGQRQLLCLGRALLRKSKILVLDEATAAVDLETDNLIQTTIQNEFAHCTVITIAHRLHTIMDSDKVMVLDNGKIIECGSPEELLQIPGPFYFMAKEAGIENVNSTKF

[2] = biological target: T1, ATP-binding cassette sub-family C member 4 (Homo sapiens, UniProt O15439); test: Inhibition of human MRP4 overexpressed in Sf9 cell membrane vesicles assessed as uptake of [3H]-estradiol-17beta-D-glucuronide in presence of ATP and GSH measured after 20 mins by membrane vesicle transport assay; type: ADME, cell-based
T1 sequence (O15439 whole entry): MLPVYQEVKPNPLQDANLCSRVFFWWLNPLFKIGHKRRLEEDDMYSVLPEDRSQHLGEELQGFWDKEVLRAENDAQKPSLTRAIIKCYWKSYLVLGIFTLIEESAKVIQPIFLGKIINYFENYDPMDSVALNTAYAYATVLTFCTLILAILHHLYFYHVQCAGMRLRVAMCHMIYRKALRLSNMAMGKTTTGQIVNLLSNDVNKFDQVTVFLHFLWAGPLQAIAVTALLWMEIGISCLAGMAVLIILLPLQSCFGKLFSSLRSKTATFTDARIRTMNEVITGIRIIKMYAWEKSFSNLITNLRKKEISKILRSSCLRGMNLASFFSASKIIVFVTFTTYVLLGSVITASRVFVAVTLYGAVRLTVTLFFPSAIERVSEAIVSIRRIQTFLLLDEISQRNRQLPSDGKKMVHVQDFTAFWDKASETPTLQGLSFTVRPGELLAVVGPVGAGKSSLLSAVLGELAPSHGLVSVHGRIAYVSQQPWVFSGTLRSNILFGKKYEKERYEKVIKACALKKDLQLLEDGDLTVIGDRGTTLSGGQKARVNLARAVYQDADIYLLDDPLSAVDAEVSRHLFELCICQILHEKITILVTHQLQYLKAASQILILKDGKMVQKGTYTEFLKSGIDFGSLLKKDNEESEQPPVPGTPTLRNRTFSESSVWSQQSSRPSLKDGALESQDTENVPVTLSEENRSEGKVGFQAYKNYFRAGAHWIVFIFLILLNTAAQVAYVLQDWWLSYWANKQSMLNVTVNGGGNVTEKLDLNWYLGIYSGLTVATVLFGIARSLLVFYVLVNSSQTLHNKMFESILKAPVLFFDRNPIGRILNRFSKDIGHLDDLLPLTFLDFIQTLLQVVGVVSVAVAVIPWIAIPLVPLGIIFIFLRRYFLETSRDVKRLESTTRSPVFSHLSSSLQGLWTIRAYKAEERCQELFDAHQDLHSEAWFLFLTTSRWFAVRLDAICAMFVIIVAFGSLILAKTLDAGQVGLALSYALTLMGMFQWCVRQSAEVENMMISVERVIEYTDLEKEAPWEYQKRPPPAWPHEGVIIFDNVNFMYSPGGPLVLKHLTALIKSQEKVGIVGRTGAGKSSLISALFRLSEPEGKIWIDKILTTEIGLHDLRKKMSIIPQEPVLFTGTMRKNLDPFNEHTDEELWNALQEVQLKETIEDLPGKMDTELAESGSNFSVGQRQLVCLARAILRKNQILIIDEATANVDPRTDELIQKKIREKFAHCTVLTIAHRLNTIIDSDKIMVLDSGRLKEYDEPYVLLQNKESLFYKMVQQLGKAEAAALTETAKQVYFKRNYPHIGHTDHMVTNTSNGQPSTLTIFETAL

[3] = biological target: ATP-binding cassette sub-family C member 3 (Homo sapiens, UniProt O15438); test: Inhibition of human MRP3 overexpressed in Sf9 insect cell membrane vesicles assessed as uptake of [3H]-estradiol-17beta-D-glucuronide in presence of ATP and GSH measured after 10 mins by membrane vesicle transport assay; type: ADME, cell-based
Chain of ATP-binding cassette sub-family C member 3 (O15438 whole entry): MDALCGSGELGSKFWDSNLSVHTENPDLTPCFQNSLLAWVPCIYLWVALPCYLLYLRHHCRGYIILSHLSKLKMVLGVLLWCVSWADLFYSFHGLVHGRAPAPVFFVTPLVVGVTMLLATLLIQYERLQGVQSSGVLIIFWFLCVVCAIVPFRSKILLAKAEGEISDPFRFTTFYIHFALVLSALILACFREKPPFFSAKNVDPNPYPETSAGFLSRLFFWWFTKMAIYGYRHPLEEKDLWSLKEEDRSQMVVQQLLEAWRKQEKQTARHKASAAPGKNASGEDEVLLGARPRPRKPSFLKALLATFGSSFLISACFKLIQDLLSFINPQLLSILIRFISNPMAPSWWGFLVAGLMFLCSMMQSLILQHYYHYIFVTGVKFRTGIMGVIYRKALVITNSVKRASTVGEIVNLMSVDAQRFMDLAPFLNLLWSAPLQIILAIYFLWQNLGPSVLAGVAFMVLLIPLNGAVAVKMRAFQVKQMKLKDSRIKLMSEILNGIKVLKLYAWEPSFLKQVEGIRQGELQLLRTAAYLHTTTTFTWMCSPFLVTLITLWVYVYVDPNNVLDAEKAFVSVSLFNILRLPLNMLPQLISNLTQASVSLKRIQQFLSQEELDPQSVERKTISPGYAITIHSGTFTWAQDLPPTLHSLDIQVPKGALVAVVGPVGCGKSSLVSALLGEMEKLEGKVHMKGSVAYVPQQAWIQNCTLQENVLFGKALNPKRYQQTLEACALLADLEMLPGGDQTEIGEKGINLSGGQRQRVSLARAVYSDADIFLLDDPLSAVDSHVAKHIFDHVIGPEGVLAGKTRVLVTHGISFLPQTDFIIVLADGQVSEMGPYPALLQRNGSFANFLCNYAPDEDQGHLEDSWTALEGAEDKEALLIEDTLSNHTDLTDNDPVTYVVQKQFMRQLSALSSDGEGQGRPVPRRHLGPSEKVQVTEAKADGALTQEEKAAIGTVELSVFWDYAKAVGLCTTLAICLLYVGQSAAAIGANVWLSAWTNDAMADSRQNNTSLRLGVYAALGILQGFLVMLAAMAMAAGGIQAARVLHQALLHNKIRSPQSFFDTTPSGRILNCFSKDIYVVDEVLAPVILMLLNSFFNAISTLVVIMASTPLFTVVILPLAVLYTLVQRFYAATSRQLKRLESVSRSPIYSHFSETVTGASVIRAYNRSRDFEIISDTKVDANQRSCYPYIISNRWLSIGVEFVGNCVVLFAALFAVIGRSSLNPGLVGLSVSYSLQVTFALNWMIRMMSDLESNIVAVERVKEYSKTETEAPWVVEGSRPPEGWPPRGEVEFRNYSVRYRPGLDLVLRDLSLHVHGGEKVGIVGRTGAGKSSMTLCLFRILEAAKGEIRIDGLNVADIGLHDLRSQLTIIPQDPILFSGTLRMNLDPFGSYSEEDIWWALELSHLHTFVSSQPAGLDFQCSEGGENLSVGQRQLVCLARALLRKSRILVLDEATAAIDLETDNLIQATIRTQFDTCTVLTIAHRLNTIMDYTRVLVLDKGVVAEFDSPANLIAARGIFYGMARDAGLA

| Compound | IC50 (Bile salt export pump) | IC50 [1] | IC50 [2] | IC50 [3] |
| --- | --- | --- | --- | --- |
| Cc1nnc(C(C)C)n1[C@@H]1C[C@H]2CC[C@@H](C1)N2CC[C@H](NC(=O)C1CCC(F)(F)CC1)c1ccccc1 [MARAVIROC] | 110 µM | > 133 µM | > 133 µM | > 133 µM |
| C=CC(N)CCC(=O)O (configuration not stated) [VIGABATRIN] | > 133 µM | > 133 µM | > 133 µM | > 133 µM |
| CC(C)NCC(O)c1ccc(NS(C)(=O)=O)cc1 (configuration not stated) [SOTALOL] | > 133 µM | > 133 µM | > 133 µM | > 133 µM |
| CC[C@H]1CN2CCc3cc(OC)c(OC)cc3[C@@H]2C[C@@H]1C[C@H]1NCCc2cc(OC)c(OC)cc21 [EMETINE] | > 133 µM | > 133 µM | > 133 µM | > 133 µM |
| Clc1ccc2c(c1)C(N1CCNCC1)=Nc1ccccc1O2 [AMOXAPINE] | > 133 µM | > 133 µM | > 133 µM | > 133 µM |
| CC1(C)S[C@@H]2[C@H](NC(=O)[C@H](NC(=O)N3CCNC3=O)c3ccccc3)C(=O)N2[C@H]1C(=O)O [AZLOCILLIN SODIUM] | > 133 µM | > 133 µM | > 133 µM | > 133 µM |
| CCN(CC)CCNC(=O)c1ccc(NC(C)=O)cc1 [ACECAINIDE] | > 133 µM | > 133 µM | > 133 µM | > 133 µM |
| Nc1nc(=O)[nH]cc1F [FLUCYTOSINE] | > 133 µM | > 133 µM | > 133 µM | > 133 µM |
| CS(=O)(=O)OCCCCOS(C)(=O)=O [BUSULFAN] | > 133 µM | > 133 µM | > 133 µM | > 133 µM |
| NC(=O)N1c2ccccc2CC(=O)c2ccccc21 [OXCARBAZEPINE] | > 133 µM | > 133 µM | > 133 µM | > 133 µM |
| C=CCc1ccccc1OCC(O)CNC(C)C (configuration not stated) [ALPRENOLOL] | > 133 µM | > 133 µM | > 133 µM | > 133 µM |
| CN1CCN(C(=O)OC2c3nccnc3C(=O)N2c2ccc(Cl)cn2)CC1 (configuration not stated) [ZOPICLONE] | > 133 µM | > 133 µM | > 133 µM | > 133 µM |
| O=P1(NCCCl)OCCCN1CCCl (configuration not stated) [IFOSFAMIDE] | > 133 µM | > 133 µM | > 133 µM | > 133 µM |
| C[C@@H]1CCN(C(=O)CC#N)C[C@@H]1N(C)c1ncnc2[nH]ccc12 [TOFACITINIB] | > 133 µM | > 133 µM | > 133 µM | > 133 µM |
| C=CCN1CC[C@]23c4c5ccc(O)c4O[C@H]2C(=O)CC[C@@]3(O)[C@H]1C5 [NALOXONE] | > 133 µM | > 133 µM | > 133 µM | > 133 µM |
| Nc1ccn([C@H]2CC[C@@H](CO)O2)c(=O)n1 [ZALCITABINE] | > 133 µM | > 133 µM | > 133 µM | > 133 µM |
| COC[C@@H](NC(C)=O)C(=O)NCc1ccccc1 [LACOSAMIDE] | > 133 µM | > 133 µM | > 133 µM | > 133 µM |
| CCCCNC(=O)NS(=O)(=O)c1ccc(C)cc1 [TOLBUTAMIDE] | > 133 µM | > 133 µM | > 133 µM | > 133 µM |
| C[C@H]1c2cccc(O)c2C(=O)C2=C(O)[C@]3(O)C(=O)C(C(N)=O)=C(O)[C@@H](N(C)C)[C@@H]3[C@@H](O)[C@@H]21 [DOXYCYCLINE HYDROCHLORIDE] | > 133 µM | > 133 µM | > 133 µM | > 133 µM |

| Compound | IC50 (Bile salt export pump) | IC50 [1] | IC50 [2] | IC50 [3] |
| --- | --- | --- | --- | --- |
| C[C@H]1C[C@@H]2[C@H]([C@@H](O)C[C@@]3(C)[C@H]2CC[C@]3(O)C(=O)CO)[C@@]2(C)C=CC(=O)C=C12 [METHYLPREDNISOLONE] | > 133 µM | > 133 µM | 41 µM | > 133 µM |
| COc1c(N2CCNC(C)C2)c(F)cc2c(=O)c(C(=O)O)cn(C3CC3)c12 (configuration not stated) [GATIFLOXACIN] | > 133 µM | > 133 µM | > 133 µM | > 133 µM |
| SPIRAMYCIN | > 133 µM | > 133 µM | > 133 µM | > 133 µM |
| CC(=O)SCC(Cc1ccccc1)C(=O)NCC(=O)OCc1ccccc1 (configuration not stated) [RACECADOTRIL] | 20.3 µM | > 133 µM | > 133 µM | 99 µM |
| CN(C(=O)c1c(O)c2ccccc2n(C)c1=O)c1ccccc1 [ROQUINIMEX] | > 133 µM | > 133 µM | > 133 µM | > 133 µM |
| N=C(N)NCCCC[C@@H]1NC(=O)CCSSC[C@@H](C(N)=O)NC(=O)[C@@H]2CCCN2C(=O)[C@H](Cc2c[nH]c3ccccc23)NC(=O)[C@H](CC(=O)O)NC(=O)CNC1=O ([Mpa][hArg]GDWPC-NH2; disulfide 1-7) | > 133 µM | > 133 µM | > 133 µM | > 133 µM |
| C=C1CC[C@H](O)C/C1=C/C=C1\CCC[C@]2(C)[C@@H]([C@H](C)/C=C/[C@H](C)C(C)C)CC[C@@H]12 [ERGOCALCIFEROL] | 75.8 µM | > 133 µM | > 133 µM | > 133 µM |
| c1cc(CN2CCCNCCNCCCNCC2)ccc1CN1CCCNCCNCCCNCC1 [PLERIXAFOR] | > 133 µM | > 133 µM | > 133 µM | > 133 µM |
| O=C(O[C@@H]1C[C@@H]2C[C@H]3C[C@H](C1)N2CC3=O)c1c[nH]c2ccccc12 | > 133 µM | > 133 µM | > 133 µM | > 133 µM |
| CC[C@H](C)[C@@H]1NC(=O)[C@H](Cc2ccc(O)cc2)NC(=O)[C@@H](N)CSSC[C@@H](C(=O)N2CCC[C@H]2C(=O)N[C@@H](CC(C)C)C(=O)NCC(N)=O)NC(=O)[C@H](CC(N)=O)NC(=O)[C@H](CCC(N)=O)NC1=O | > 133 µM | > 133 µM | > 133 µM | > 133 µM |
| COc1cc(Cc2cnc(N)nc2N)cc(OC)c1OC [TRIMETHOPRIM] | > 133 µM | > 133 µM | > 133 µM | > 133 µM |
| C[C@@H]1C[C@H]2[C@@H]3CCC4=CC(=O)C=C[C@]4(C)[C@@]3(F)[C@@H](O)C[C@]2(C)[C@@]1(O)C(=O)CO [DEXAMETHASONE] | > 133 µM | > 133 µM | > 133 µM | > 133 µM |
| CC1(C)S[C@@H]2[C@H](NC(=O)[C@H](N)c3ccc(O)cc3)C(=O)N2[C@H]1C(=O)O [AMOXICILLIN] | > 133 µM | > 133 µM | > 133 µM | > 133 µM |
| OCCN1C[C@H](O)[C@@H](O)[C@H](O)[C@H]1CO [MIGLITOL] | > 133 µM | > 133 µM | > 133 µM | > 133 µM |
| O=C1CN=C(c2ccccc2)c2cc([N+](=O)[O-])ccc2N1 [NITRAZEPAM] | > 133 µM | > 133 µM | > 133 µM | > 133 µM |
| C[C@]12CC[C@@H]3c4ccc(O)cc4C[C@@H](CCCCCCCCC[S+]([O-])CCCC(F)(F)C(F)(F)F)[C@H]3[C@@H]1CC[C@@H]2O (some centres not stated) [FULVESTRANT] | > 133 µM | > 133 µM | > 133 µM | > 133 µM |
| Cc1nc2ccc(CN(C)c3ccc(C(=O)N[C@@H](CCC(=O)O)C(=O)O)s3)cc2c(=O)[nH]1 [RALTITREXED] | > 133 µM | > 133 µM | > 133 µM | > 133 µM |
| CCCN1C[C@H](CSC)C[C@@H]2c3cccc4[nH]cc(c34)C[C@H]21 [PERGOLIDE MESYLATE] | > 133 µM | > 133 µM | > 133 µM | > 133 µM |
| COc1ccc(Cc2nccc3cc(OC)c(OC)cc23)cc1OC [PAPAVERINE] | > 133 µM | > 133 µM | 23.1 µM | > 133 µM |
